The values below come from DBAASP.

Values after ≈ are worked out from the molar mass of the structure shown. Values joined by “and” are separate entries in the source; they are usually repeats but may differ in a detail not shown here. Equal values may be shown once.

Test systems include Aerococcus viridans; Bacillus megaterium; Enterococcus faecalis; Escherichia coli 1106; Escherichia coli D22; Escherichia coli D31; Micrococcus luteus; Pseudomonas alginovora; Salmonella typhimurium; Staphylococcus aureus; Citrobacter freundii; Enterobacter cloacae; Enterococcus faecium; Escherichia coli; Klebsiella aerogenes; Klebsiella oxytoca; Proteus mirabilis; Proteus vulgaris; Pseudomonas aeruginosa; Serratia marcescens; Streptococcus pneumoniae; Theileria equi; Listeria ivanovii LMA 94.

What all share (test): ≥ marks a high value that may be exact or a test limit, other limits are often not marked, values filed in µg/mL are converted to µM
Test [1] deals with Pseudoalteromonas carrageenovora ATCC 43555.
Test [2] deals with Escherichia coli PCM 2057.
For test [3], the system named is Staphylococcus aureus PCM 1944.
For test [4], the system named is Acinetobacter calcoaceticus.
Test [5] concerns Enterococcus faecalis ATCC 29212.
The subject of test [6] is Klebsiella pneumoniae ATCC 700603.
In test [7] the test system is Pseudomonas aeruginosa ATCC 27853.
For test [8], the system named is Staphylococcus epidermidis ATCC 14990.
Test [9] deals with Staphylococcus epidermidis.
Test [10] concerns Staphylococcus haemolyticus.
In test [11] the test system is Streptococcus agalactiae ATCC 27956.
The subject of test [12] is Streptococcus oralis ATCC 35037.
In test [13] the test system is Streptococcus pneumoniae ATCC 49619.
In test [14] the test system is Escherichia coli O157:H7 ATCC 35150.
For test [15], the system named is Salmonella enterica serovar Typhimurium.
Test [16] relates to Klebsiella pneumoniae CIP 8291.
For test [17], the system named is Lactococcus lactis subsp. cremoris I116.
For test [18], the system named is Staphylococcus aureus CIP 677.
The test system of test [19] is Bacillus subtilis KCCM 11495.
In test [20] the test system is Escherichia coli KCCM 11569.

In general, MIC refers to the lowest concentration found to suppress growth. As to `C[C@@H]1NC(=O)[C@H](Cc2c[nH]c3ccccc23)NC(=O)CNC(=O)[C@H](CCCCN)NC(=O)[C@@H]2CSSC[C@@H](C(=O)O)NC(=O)[C@H](CCCN=C(N)N)NC(=O)[C@H](Cc3ccccc3)NC(=O)[C@@H]3CSSC[C@H](NC(=O)[C@H](CCCCN)NC(=O)[C@H](C)NC(=O)[C@H](CCCCN)NC(=O)[C@@H]4CSSC[C@H](NC(=O)[C@H](Cc5ccc(O)cc5)NC(=O)[C@H](CSSC[C@H](NC(=O)CN)C(=O)N[C@@H](C)C(=O)N[C@@H](CO)C(=O)N[C@@H](CCCN=C(N)N)C(=O)N4)NC(=O)[C@H](CCCN=C(N)N)NC(=O)CNC(=O)[C@H](CCCN=C(N)N)NC(=O)[C@H](Cc4ccccc4)NC(=O)[C@H](CO)NC(=O)[C@H](C)NC(=O)[C@H](CO)NC1=O)C(=O)N[C@@H](CCCCN)C(=O)N3)C(=O)N[C@@H](C)C(=O)NCC(=O)N[C@@H](CCCN=C(N)N)C(=O)N[C@@H](CCCN=C(N)N)C(=O)N2` [GCASRCKAKCAGRRCKGWASASFRGRCYCKCFRC], the MIC with Aerococcus viridans came to 0.849 µM (≈ 3.2 µg/mL); in the test with Bacillus megaterium, 0.849 µM (≈ 3.2 µg/mL); in the test with Enterococcus faecalis it was 3.54 µM (≈ 13.3 µg/mL); in the test on Escherichia coli 1106 it was 10 µM (≈ 37.7 µg/mL); in the test with Escherichia coli D22, 7.07 µM (≈ 26.7 µg/mL); against Escherichia coli D31, 3.54 µM (≈ 13.3 µg/mL). Besides, the MIC was found to be 0.849 µM (≈ 3.2 µg/mL) against Micrococcus luteus; 3.54 µM (≈ 13.3 µg/mL) in test [1]; 3.54 µM (≈ 13.3 µg/mL) against Pseudomonas alginovora; 10 µM (≈ 37.7 µg/mL) against Salmonella typhimurium; 7.07 µM (≈ 26.7 µg/mL) against Staphylococcus aureus.
In the case of `CC[C@H](C)[C@H](N)C(=O)NCC(=O)N[C@H]1CSSC[C@@H](C(=O)N[C@@H](Cc2ccccc2)C(=O)N[C@H](C(=O)N[C@@H](CCCCN)C(N)=O)C(C)C)NC(=O)[C@@H]2CCCN2C(=O)[C@H](CCCN=C(N)N)NC(=O)[C@@H]2CCCN2C(=O)[C@@H]2CCCN2C(=O)[C@H]([C@@H](C)CC)NC(=O)[C@H](CO)NC(=O)[C@H](CCCCN)NC(=O)[C@H]([C@@H](C)O)NC(=O)[C@H](Cc2c[nH]c3ccccc23)NC1=O` [IGCWTKSIPPRPCFVK], the MIC in test [2] and in [3] was no less than 546 µM each time.
Regarding `NC(=O)CC[C@H](N)C(=O)N[C@@H](Cc1c[nH]c2ccccc12)C(=O)NCC(=O)N[C@@H](CCCN=C(N)N)C(=O)N[C@@H](CCCN=C(N)N)C(=O)N[C@H]1CSSC[C@@H]2NC(=O)[C@H](Cc3ccc(O)cc3)NC(=O)[C@H](CCCN=C(N)N)NC(=O)[C@H](CCCN=C(N)N)NC(=O)CNC(=O)[C@@H]3CCCN3C(=O)CNC(=O)[C@H](Cc3c[nH]c4ccccc34)NC(=O)CNC(=O)[C@H](CSSC[C@@H](C(=O)O)NC(=O)[C@H](Cc3c[nH]c4ccccc34)NC(=O)[C@H](CCCN=C(N)N)NC(=O)[C@H](CCCN=C(N)N)NC2=O)NC1=O` [QWGRRCCGWGPGRRYCRRWC], the MIC in test [4] is no less than 50.3 µM; in the test on Citrobacter freundii, no less than 50.3 µM; in the test with Enterobacter cloacae, 2.22 µM (≈ 5.65 µg/mL); in [5], 15.7 µM and 31.5 µM; against Enterococcus faecium it was 1.57 µM (≈ 3.99 µg/mL); against Escherichia coli, 2.22 µM (≈ 5.65 µg/mL). For the same compound, the MIC in the test on Klebsiella aerogenes is 8.9 µM (≈ 22.6 µg/mL); in the test with Klebsiella oxytoca, 17.8 µM (≈ 45.2 µg/mL); in [6], 47.2 µM and 62.9 µM; against Proteus mirabilis, 25.2 µM (≈ 63.9 µg/mL); in the test on Proteus vulgaris it was 17.8 µM (≈ 45.2 µg/mL); in test [7] it was 62.9 µM (≈ 160 µg/mL). Also, the MIC against Pseudomonas aeruginosa is greater than 50.3 µM; against Serratia marcescens it was 4.45 µM (≈ 11.3 µg/mL); in the test on Staphylococcus aureus, 3.15 µM (≈ 7.99 µg/mL); in [8], 31.5 µM and ≥ 62.9 µM; in test [9], 8.9 µM (≈ 22.6 µg/mL); in [10], 4.45 µM (≈ 11.3 µg/mL). In addition, the MIC in test [11] is no less than 62.9 µM; in test [12] it was 31.5 µM and ≥ 78.6 µM; in test [13], 7.86 µM and 15.7 µM; in the test on Streptococcus pneumoniae, 8.9 µM (≈ 22.6 µg/mL).
As to `CC[C@H](C)[C@H](NC(=O)CNC(=O)[C@H](C)NC(=O)[C@H](CS)NC(=O)[C@H](Cc1ccc(O)cc1)NC(=O)CNC(=O)CNC(=O)[C@H](CCCN=C(N)N)NC(=O)[C@H](CCCN=C(N)N)NC(=O)CNC(=O)[C@@H](NC(=O)[C@@H](N)CO)[C@@H](C)CC)C(=O)N[C@H](C(=O)N[C@@H](CCCCN)C(=O)N[C@@H](CCC(N)=O)C(=O)N[C@H](C(=O)N[C@@H](CS)C(=O)N[C@H](C(=O)N[C@@H](CS)C(=O)N[C@@H](Cc1ccc(O)cc1)C(=O)N[C@@H](CCCN=C(N)N)C(=O)O)[C@@H](C)O)[C@@H](C)O)[C@@H](C)CC` [SIGRRGGYCAGIIKQTCTCYR], the MIC was 2 µM (≈ 4.61 µg/mL) in test [14]; 2 µM (≈ 4.61 µg/mL) with Pseudomonas aeruginosa; 10 µM (≈ 23.1 µg/mL) in test [15]; 2 µM (≈ 4.61 µg/mL) with Staphylococcus aureus; 5 µM (≈ 11.5 µg/mL) with Theileria equi.
Regarding `CC[C@H](C)[C@H](NC(=O)[C@H](CCCCN)NC(=O)[C@H](CC(C)C)NC(=O)[C@H](C)NC(=O)[C@H](CO)NC(=O)CNC(=O)[C@H](CC(C)C)NC(=O)[C@@H](N)Cc1c[nH]c2ccccc12)C(=O)NCC(=O)N[C@@H](C)C(=O)N[C@@H](CCCCN)C(=O)N[C@@H](CC(C)C)C(=O)N[C@@H](CC(C)C)C(=O)N1CCC[C@H]1C(=O)N[C@@H](CO)C(=O)N[C@H](C(=O)N[C@H](C(=O)NCC(=O)N[C@@H](CC(C)C)C(=O)N[C@@H](Cc1ccccc1)C(=O)N[C@@H](CCCCN)C(=O)N[C@@H](CCCCN)C(=O)N[C@@H](CCCCN)C(=O)N[C@@H](CCCCN)C(=O)N[C@@H](CCC(N)=O)C(=O)O)C(C)C)C(C)C` [WLGSALKIGAKLLPSVVGLFKKKKQ], the MIC in [16] was no less than 64 µM; in [17], 4 µM (≈ 10.8 µg/mL); against Listeria ivanovii LMA 94, 8 µM (≈ 21.7 µg/mL); in test [18] it was 8 µM (≈ 21.7 µg/mL).
For the compound `CC(C)C[C@H](NC(=O)[C@@H](NC(=O)CNC(=O)[C@H](CCCCN)NC(=O)[C@H](C)NC(=O)[C@H](CS)NC(=O)[C@H](CC(N)=O)NC(=O)[C@H](CC(C)C)NC(=O)CNC(=O)[C@H](Cc1cnc[nH]1)NC(=O)[C@H](Cc1cnc[nH]1)NC(=O)[C@H](CC(C)C)NC(=O)[C@H](CC(C)C)NC(=O)[C@H](C)NC(=O)[C@H](CC(N)=O)NC(=O)[C@H](CC(C)C)NC(=O)[C@@H](N)Cc1c[nH]c2ccccc12)C(C)C)C(N)=O` [WLNALLHHGLNCAKGVL], the MIC stood at 0.538 µM (≈ 1 µg/mL) in [19] and 1.52 µM (≈ 2.83 µg/mL) in test [20].
